Earlier results on 1 compound are cited in US11045483B2, “Pain-killing composition comprising a salicylic acid derivative” (AB7 INNOVATION S.A.S.U, priority 2015, dated 2021).

For this series the following is noted: topical application of formulations; Sheree E. Cross et al., 1998.

`COC(=O)c1ccccc1O` [methyl salicylate]: the “time that must elapse before detection in the circulatory system” value was “around 60 minutes”.
